From patent US11292770B2, “Pyridazinone herbicides” (FMC Corporation, priority 2017, dated 2022)

Key:
Format in all cases: in vivo
[1] = tested on: corn (Zea mays); test: Test A postemergence, corn; conditions: 0 to 100 scale
Excerpt: (§1) Seeds of plant species selected from barnyardgrass (Echinochloa crus-galli), kochia (Kochia scoparia), ragweed (common ragweed, Ambrosia elation), ryegrass, Italian (Italian ryegrass, Lolium multiflorum), foxtail, green (green foxtail, Setaria viridis), and pigweed (Amaranthus retroflexus) were planted into a blend of loam soil and sand and treated preemergence with a directed soil spray using test chemicals formulated in a non-phytotoxic solvent mixture which included a surfactant. At the same time, plants selected from these weed species and also wheat (Triticum aestivum), corn (Zea mays), blackgrass (Alopecurus myosuroides), and galium (catchweed bedstraw, Galium aparine) were planted in pots containing the same blend of loam soil and sand and treated with postemergence applications of test chemicals formulated in the same manner Plants ranged in height from 2 to 10 cm and were in the one- to two-leaf stage for the postemergence treatment. Treated plants and untreated controls were maintained in a greenhouse for approximately 10 d, after which time all treated plants were compared to untreated controls and visually evaluated for injury. Plant response ratings, summarized in Table A, are based on a 0 to 100 scale where 0 is no effect and 100 is complete control. A dash (—) response means no test result.

[2] = tested on: foxtail, green (green foxtail, Setaria viridis); test: Test A preemergence, foxtail, green; conditions: 0 to 100 scale
Excerpt: as §1

[3] = tested on: foxtail, green (green foxtail, Setaria viridis); test: Test A postemergence, foxtail, green; conditions: 0 to 100 scale
Excerpt: as §1

[4] = tested on: ragweed (common ragweed, Ambrosia elation); test: Test A preemergence, ragweed; conditions: 0 to 100 scale
Excerpt: as §1

[5] = tested on: barnyardgrass (Echinochloa crus-galli); test: Test B flooded paddy test, barnyardgrass; conditions: Flood, 250 g ai/ha; scale of 0 to 100, 0 no effect, 100 complete control
Protocol: (§2) Plant species in the flooded paddy test selected from rice (Oryza sativa), sedge, umbrella (small-flower umbrella sedge, Cyperus difformis), ducksalad (Heteranthera limosa), and barnyardgrass (Echinochloa crus-galli) were grown to the 2-leaf stage for testing. At the time of treatment, test pots were flooded to 3 cm above the soil surface, treated by application of test compounds directly to the paddy water, and then maintained at that water depth for the duration of the test. Treated plants and controls were maintained in a greenhouse for 13 to 15 d, after which time all species were compared to controls and visually evaluated. Plant response ratings, summarized in Table B, are based on a scale of 0 to 100 where 0 is no effect and 100 is complete control. A dash (—) response means no test result.

[6] = tested on: pigweed (Amaranthus retroflexus); test: Test A postemergence, pigweed; conditions: 0 to 100 scale
Excerpt: as §1

[7] = tested on: ryegrass, Italian (Italian ryegrass, Lolium multiflorum); test: Test A postemergence, ryegrass, Italian; conditions: 0 to 100 scale
Excerpt: as §1

[8] = tested on: ragweed (common ragweed, Ambrosia elation); test: Test A postemergence, ragweed; conditions: 0 to 100 scale
Excerpt: as §1

[9] = tested on: ducksalad (Heteranthera limosa); test: Test B flooded paddy test, ducksalad; conditions: Flood, 250 g ai/ha; scale of 0 to 100
Protocol: as §2

[10] = tested on: pigweed (Amaranthus retroflexus); test: Test A preemergence, pigweed; conditions: 0 to 100 scale
Excerpt: as §1

[11] = tested on: galium (catchweed bedstraw, Galium aparine); test: Test A postemergence, galium; conditions: 0 to 100 scale
Excerpt: as §1

[12] = tested on: blackgrass (Alopecurus myosuroides); test: Test A postemergence, blackgrass; conditions: 0 to 100 scale
Excerpt: as §1

[13] = tested on: sedge, umbrella (small-flower umbrella sedge, Cyperus difformis); test: Test B flooded paddy test, sedge, umbrella; conditions: Flood, 250 g ai/ha; scale of 0 to 100
Protocol: as §2

[14] = tested on: kochia (Kochia scoparia); test: Test A preemergence, kochia; conditions: 0 to 100 scale
Excerpt: as §1

[15] = tested on: wheat (Triticum aestivum); test: Test A postemergence, wheat; conditions: 0 to 100 scale
Excerpt: as §1

[16] = tested on: barnyardgrass (Echinochloa crus-galli); test: Test A preemergence, barnyardgrass; conditions: 0 to 100 scale
Excerpt: as §1

[17] = tested on: ryegrass, Italian (Italian ryegrass, Lolium multiflorum); test: Test A preemergence, ryegrass, Italian; conditions: 0 to 100 scale
Excerpt: as §1

[18] = tested on: rice (Oryza sativa); test: Test B flooded paddy test, rice; conditions: Flood, 250 g ai/ha; scale of 0 to 100
Protocol: as §2

[19] = tested on: kochia (Kochia scoparia); test: Test A postemergence, kochia; conditions: 0 to 100 scale
Excerpt: as §1

[20] = tested on: barnyardgrass (Echinochloa crus-galli); test: Test A postemergence, barnyardgrass; conditions: 0 to 100 scale
Excerpt: as §1

[21] = 125 g ai/ha, 0 no effect, 100 complete control

| SMILES | Plant response rating, Corn ([1]; 31 g ai/ha) | Plant response rating, Corn ([1]; 125 g ai/ha) | Plant response rating, Foxtail, Green ([2]; 31 g ai/ha) | Plant response rating, Foxtail, Green ([2]; 125 g ai/ha) | Plant response rating, Foxtail, Green ([3]; 31 g ai/ha) | Plant response rating, Foxtail, Green ([3]; 125 g ai/ha) | Plant response rating, Ragweed ([4]; 31 g ai/ha) | Plant response rating, Ragweed ([4]; 125 g ai/ha) | Plant response rating, Pigweed ([6]; 31 g ai/ha) | Plant response rating, Pigweed ([6]; 125 g ai/ha) | Plant response rating, Ryegrass, Italian ([7]; 31 g ai/ha) | Plant response rating, Ryegrass, Italian ([7]; 125 g ai/ha) | Plant response rating, Ragweed ([8]; 31 g ai/ha) | Plant response rating, Ragweed ([8]; 125 g ai/ha) | Plant response rating, Pigweed ([10]; 31 g ai/ha) | Plant response rating, Pigweed ([10]; 125 g ai/ha) | Plant response rating, Galium ([11]; 31 g ai/ha) | Plant response rating, Galium ([11]; 125 g ai/ha) | Plant response rating, Blackgrass ([12]; 31 g ai/ha) | Plant response rating, Blackgrass ([12]; 125 g ai/ha) | further results |
| --- | --- | --- | --- | --- | --- | --- | --- | --- | --- | --- | --- | --- | --- | --- | --- | --- | --- | --- | --- | --- | --- |
| Cn1nc(Cl)c(O)c(-c2c3ccccc3cc3ccccc23)c1=O [Compound 1, 4-(9-anthracenyl)-6-chloro-5-hydroxy-2-methyl-3(2H)-pyridazinone] | 0 | 0 | 0 | 0 | 10 | 50 | 70 | 100 | 90 | 100 | 20 | 40 | 80 | 90 | 100 | 100 | 70 | 90 | 0 | 10 | Plant response rating, Barnyardgrass [5]: 20; Plant response rating, Ducksalad [9]: 85; Plant response rating, Sedge, Umbrella [13]: 90; Plant response rating, Kochia ([14]; 31 g ai/ha): 0; Plant response rating, Kochia ([14]; 125 g ai/ha): 20; Plant response rating, Wheat ([15]; 31 g ai/ha): 0; Plant response rating, Wheat ([15]; 125 g ai/ha): 10; Plant response rating, Barnyardgrass ([16]; 31 g ai/ha): 0; Plant response rating, Barnyardgrass ([16]; 125 g ai/ha): 0; Plant response rating, Ryegrass, Italian ([17]; 31 g ai/ha): 20; Plant response rating, Ryegrass, Italian ([17]; 125 g ai/ha): 30; Plant response rating, Rice [18]: 0; Plant response rating, Kochia ([19]; 31 g ai/ha): 10; Plant response rating, Kochia ([19]; 125 g ai/ha): 20; Plant response rating, Barnyardgrass ([20]; 31 g ai/ha): 0; Plant response rating, Barnyardgrass [20, 21]: 20 |
| Cn1nc(Cl)c(O)c(-c2c3ccccc3c(Cl)c3ccccc23)c1=O [Compound 2, 6-chloro-4-(10-chloro-9-anthracenyl)-5-hydroxy-2-methyl-3(2H)-pyridazinone] | 0 | 0 | 0 | 90 | 10 | 60 | 80 | 100 | 100 | 100 | 50 | 80 | 90 | 90 | 100 | 100 | 20 | 100 | 0 | 60 | Plant response rating, Barnyardgrass [5]: 0; Plant response rating, Ducksalad [9]: 80; Plant response rating, Sedge, Umbrella [13]: 75; Plant response rating, Kochia ([14]; 31 g ai/ha): 0; Plant response rating, Kochia ([14]; 125 g ai/ha): 10; Plant response rating, Wheat ([15]; 31 g ai/ha): 0; Plant response rating, Wheat ([15]; 125 g ai/ha): 30; Plant response rating, Barnyardgrass ([16]; 31 g ai/ha): 0; Plant response rating, Barnyardgrass ([16]; 125 g ai/ha): 0; Plant response rating, Ryegrass, Italian ([17]; 31 g ai/ha): 20; Plant response rating, Ryegrass, Italian ([17]; 125 g ai/ha): 70; Plant response rating, Rice [18]: 0; Plant response rating, Kochia ([19]; 31 g ai/ha): 10; Plant response rating, Kochia ([19]; 125 g ai/ha): 70; Plant response rating, Barnyardgrass ([20]; 31 g ai/ha): 0; Plant response rating, Barnyardgrass [20, 21]: 20 |
| Cn1nc(Cl)c(O)c(-c2c3ccccc3c(Br)c3ccccc23)c1=O [Compound 3, 4-(10-bromo-9-anthracenyl)-6-chloro-5-hydroxy-2-methyl-3(2H)-pyridazinone] | 0 | 10 | 10 | 80 | 40 | 90 | 20 | 100 | 100 | 100 | 40 | 50 | 80 | 90 | 100 | 100 | 90 | 90 | 10 | 70 | Plant response rating, Kochia ([14]; 31 g ai/ha): 0; Plant response rating, Kochia ([14]; 125 g ai/ha): 50; Plant response rating, Wheat ([15]; 31 g ai/ha): 20; Plant response rating, Wheat ([15]; 125 g ai/ha): 60; Plant response rating, Barnyardgrass ([16]; 31 g ai/ha): 0; Plant response rating, Barnyardgrass ([16]; 125 g ai/ha): 50; Plant response rating, Ryegrass, Italian ([17]; 31 g ai/ha): 20; Plant response rating, Ryegrass, Italian ([17]; 125 g ai/ha): 80; Plant response rating, Kochia ([19]; 31 g ai/ha): 10; Plant response rating, Kochia ([19]; 125 g ai/ha): 50; Plant response rating, Barnyardgrass ([20]; 31 g ai/ha): 20; Plant response rating, Barnyardgrass [20, 21]: 60 |
| Cc1c2ccccc2c(-c2c(O)c(Cl)nn(C)c2=O)c2ccccc12 [Compound 5] | 10 | 20 | 0 | 0 | 0 | 30 | 0 | 0 | 50 | 90 | 0 | 50 | 10 | 20 | 0 | 60 | 20 | 70 | 0 | 0 | Plant response rating, Barnyardgrass [5]: 0; Plant response rating, Ducksalad [9]: 90; Plant response rating, Sedge, Umbrella [13]: 95; Plant response rating, Kochia ([14]; 31 g ai/ha): 0; Plant response rating, Kochia ([14]; 125 g ai/ha): 0; Plant response rating, Wheat ([15]; 31 g ai/ha): 0; Plant response rating, Wheat ([15]; 125 g ai/ha): 0; Plant response rating, Barnyardgrass ([16]; 31 g ai/ha): 0; Plant response rating, Barnyardgrass ([16]; 125 g ai/ha): 0; Plant response rating, Ryegrass, Italian ([17]; 31 g ai/ha): 0; Plant response rating, Ryegrass, Italian ([17]; 125 g ai/ha): 0; Plant response rating, Rice [18]: 0; Plant response rating, Kochia ([19]; 31 g ai/ha): 0; Plant response rating, Kochia ([19]; 125 g ai/ha): 0; Plant response rating, Barnyardgrass ([20]; 31 g ai/ha): 0; Plant response rating, Barnyardgrass [20, 21]: 30 |
